Laboratory results as given in patent US9233237B2, “Apparatus and method for periodic fluid-delivery/fluid-removal cycles in the cranial subarachnoid space to treat cerebral cortical disorders” (NEW YORK UNIVERSITY, priority 2010, dated 2016).

Tested on: monkey
Assay: EEG effects of drugs delivered through the implanted subdural/subarachnoid sheet body in a monkey
Assay type: in vivo
Settings: acetylcholine-induced EEG seizure, delivery through the sheet body over right frontal cortex (FIG. 8)
Description: In this experiment, drugs with known pharmacological actions were delivered through the sheet body 102 to test whether the inlet and outlet ports 112, 114 were clogged or obstructed, with the effects of the administered drugs monitored via EEG electrode contacts 113 integrated into the sheet body 102. The experiment was performed in a monkey approximately three months after the implantation of the sheet body 102 over the animal's right frontal cortex and the implantation of the control unit 130. During this post-surgical period, the delivery fluid was saline. On the day of this experiment, the mini-pump was temporarily modified to deliver a seizure-inducing agent (acetylcholine) through the sheet body 102, followed by a delivery of an antiepileptic drug (muscimol) through the same route. Traces 1 to 3 of FIG. 6 represent EEG recordings obtained with the EEG electrodes integrated into the subarachnoid sheet (ipsilateral recording channels 1, 2 and 3). The fourth trace of FIG. 6 was obtained from a subdural/subarachnoid electrode placed, during device implantation, in the left-side frontal cortex (contralateral recording channel).

For `NCc1cc(=O)[nH]o1` [muscimol], the “time to stop of EEG seizure after delivery” value was ≤ 2 min.
